Assay results reported in US20140243419A1, “MUCOSALLY-APPLIED AGENT FOR PREVENTION, AMELIORATION OR TREATMENT OF RETINAL DISEASE” (ROHTO PHARMACEUTICAL CO., LTD., priority 2013, published 2014).

Columns and labels:
[1] = system: NMDA-induced glaucoma rat model; experiment: Protective effect against NMDA-induced nerve damage, administration by instillation to the eye; type: in vivo, Sprague-Dawley (SD) rats; conditions: Test 2, FIG. 1: 1% memantine solution in PBS instilled twice a day for five days; 5 μL of 4 mM NMDA intravitreously; vs base (PBS)
Text: (§1) In recent years the glutamate analogue NMDA (N-methyl-D-aspartate) has been widely reported to be one of causative agents of neurodegenerative diseases including Alzheimer's disease. In the ophthalmic field, NMDA is considered to be involved in optic nerve damage in glaucoma (Brain Research Bulletin, 81 (2010) 349-358). Accordingly, in this experiment rat models with glaucoma induced by NMDA were used to evaluate the neuroprotective effect of GGA.
To Sprague-Dawley (SD) rats (n=8), an eye drop containing 1% (w/v) GGA (all-trans form) or a control eye drop not containing GGA was pre-administered by instillation to the eye twice a day for five days. On the fifth day after the start of the instillation, 5 μL of 4 mM NMDA was intravitreously administered to induce nerve damage (Test 1). […]
(§2) Three days after the administration of NMDA, the eyeballs were harvested, fixed in half Karnovsky's fixative solution for 24 hours, embedded in paraffin, thin sectioned and stained with hematoxylin-eosin (HE) to prepare histopathological sections. The histological sections were observed under an optical microscope and the thickness (μm) of the inner plexiform layer (IPL) of the retina was measured. Based on the thickness of the inner plexiform layer (IPL) of the retina, the neuroprotective effect of the tested eye drops was evaluated.

glaucoma rat model = conditions: intraperitoneal administration; cited from earlier work
[2] = system: retinal detachment-induced animal; conditions: intraperitoneal administration; cited from earlier work
[3] = system: mouse with retinal injury induced by ischemia; conditions: oral administration; cited from earlier work
[4] = system: human corneal epithelial cells (HCET); experiment: Cell permeability (Transwell), HCET; type: in vitro ADME; conditions: HCET on Transwell; 0.1% GGA (all-trans:5Z-mono-cis 6:4); 30 minutes or 4 hours; compared with MDCK-I; FIG. 3
Procedure: (§3) The following test was performed using three types of cells, human corneal epithelial cells (HCET), human nasal septum squamous carcinoma cells (RPMI-2650), and canine renal tubular epithelial cells (MDCK-I), which are often used as an intestinal permeability assay model. The medium used for culture of each type of cells is shown below.
HCET: a liquid medium containing an equal ratio of Dulbecco's modified Eagle's basal medium/Ham's F12 (DMEM/F-12, Invitrogen) supplemented with 0.5% DMSO (Wako Pure Chemical Industries, Ltd.), 10 ng/mL epidermal growth factor (R&D), 5 μg/mL insulin (Invitrogen) and 5% (v/v) fetal calf serum (Daiichi Pure Chemicals)
GGA having a weight ratio of the all-trans form to the 5Z-mono-cis form of 6:4 (Wako Pure Chemical Industries, Ltd.) was used as a test substance. Amounts of 100 mg of GGA and 0.25 mg of α-tocopherol (Wako Pure Chemical Industries, Ltd.) as an antioxidant were weighed and dissolved in 789 mg of 100% ethanol. […]
(§4) Each type of cells was seeded onto a Transwell 24-well microplate (CORNING) at 5.0×10, cells per well and cultured under 5% CO2 at 37° C. […] After the culture period, the culture supernatant in the Transwells was recovered and the residual GGA in the supernatant was measured. […]
(§5) The concentration of GGA was measured as follows. […]

[5] = Decomposition of teprenone eye drop by direct sunlight in containers; type: physicochemical; conditions: direct sunlight 24 hours; Container C (polyethylene terephthalate); vs aluminum foil covered control
Procedure: An eye drop containing teprenone was prepared. Specifically, the eye drop was prepared as follows. To surfactants (polysorbate 80 and POE castor oil) warmed to 65° C., teprenone was added and dissolved under stirring in hot water bath at 65° C. for 2 minutes. Water at 65° C. was added, a buffer solution was added, and the mixture was mixed under stirring to give a homogeneous solution. The pH and osmotic pressure were adjusted with hydrochloric acid or sodium hydroxide. The resulting solution was filtered through a membrane filter with a pore size of 0.2 μm (bottle top filter, Thermo Fisher Scientific) to give a clear sterile eye drop.
The eye drop was separately poured, using a glass volumetric pipette, into 10- to 15-mL plastic or glass containers each in an amount of 5 mL (5 g) and the containers were sealed. These eye drops were placed in the upright position on a test-tube stand and left to stand under direct sunlight for 24 hours (test samples). […]
The amount of teprenone contained in the test or control eye drops was measured by HPLC and the amount of decomposition (mg/100 mL) by light irradiation was calculated. The amount of decomposition by light irradiation was calculated as follows: […]

[6] = system: multiple sclerosis mouse model; conditions: oral administration; cited from earlier work
[7] = system: mouse with photoreceptor cell damage caused by light irradiation; conditions: oral administration; cited from earlier work
[8] = system: human nasal septum squamous carcinoma cells (RPMI-2650); experiment: Cell permeability (Transwell), RPMI-2650; type: in vitro ADME; conditions: RPMI-2650 on Transwell; 0.1% GGA (all-trans:5Z-mono-cis 6:4); 30 minutes or 4 hours; compared with MDCK-I; FIG. 3
Procedure: as §3
RPMI-2650: a minimum essential medium (MEM, Invitrogen) supplemented with 10% (v/v) fetal calf serum (Daiichi Pure Chemicals)
GGA having a weight ratio of the all-trans form to the 5Z-mono-cis form of 6:4 (Wako Pure Chemical Industries, Ltd.) was used as a test substance. Amounts of 100 mg of GGA and 0.25 mg of α-tocopherol (Wako Pure Chemical Industries, Ltd.) as an antioxidant were weighed and dissolved in 789 mg of 100% ethanol. The GGA dissolved in ethanol was diluted and dissolved in serum-free medium appropriate for each type of cells to a final concentration of 0.1 w/v %.
as §4, with “C. To each of the Transwells' lower chambers, 600 μL of the same medium as used for cell culture was added.” for “C.”
as §5

[9] = system: NMDA-induced glaucoma rat model; experiment: Protective effect against NMDA-induced nerve damage, instillation into the nose and administration to the oral cavity; type: in vivo, Sprague-Dawley (SD) rats; conditions: vs no GGA
Procedure: as §1
To Sprague-Dawley (SD) rats (n=6), 20 μL of 100% (w/v) GGA (all-trans form) was intranasally administered once a day for five days and after each administration the rats were maintained under anesthesia for 30 minutes. On the third day after the start of the administration of GGA, 5 μL of 4 mM NMDA was intravitreously administered to induce nerve damage. […]
as §2, with “in” for “in half”

Row | Molecule | neuroprotective effect based on thickness of the inner plexiform layer (IPL) of the retina [1] | expression of heat shock protein 72 (glaucoma rat model) | optic nerve damage (glaucoma rat model) | retinal ganglion cell death (glaucoma rat model) | apoptosis of photoreceptor cells [2] | expression of heat shock protein 70 [2] | number of surviving retinal neurons [3] | permeability of GGA through cells [4] | Amount of decomposition [5] | cell loss in the ganglion [6] | number of degenerating axons in the optic nerve [6] | visual function [6] | thioredoxin and heat shock protein 72 in the retinal pigment epithelium [7] | permeability of GGA through cells [8] | neuroprotective effect based on thickness of the inner plexiform layer (IPL) of the retina ([9]; FIG. 2: 20 μL of 100% (w/v) GGA (all-trans form) intranasally once a day for five days) | neuroprotective effect based on thickness of the inner plexiform layer (IPL) of the retina ([9]; FIG. 2: 100 μL of 100% (w/v) GGA (all-trans form) to the oral cavity once a day for five days)
1 | CC12CC3CC(C)(C1)CC(N)(C3)C2 [memantine] | no neuroprotective effect | – | – | – | – | – | – | – | – | – | – | – | – | – | – | –
2 | geranylgeranylacetone [GGA] | – | induced the expression of heat shock protein 72 | ameliorated optic nerve damage | reduced retinal ganglion cell death | reduced the apoptosis of photoreceptor cells significantly | induced the expression of heat shock protein 70 | significantly increased the number of surviving retinal neurons | higher than that through MDCK-I | significantly inhibited the decomposition of GGA | prevented cell loss in the ganglion | reduced the number of degenerating axons in the optic nerve | improved the visual function | induced thioredoxin and heat shock protein 72 in the retinal pigment epithelium | higher than that through MDCK-I | apparent neuroprotective effect | apparent neuroprotective effect
